From patent publication US9890138B2, “Diaminopyrimidine derivatives and processes for the preparation thereof” (YUHAN CORPORATION, priority 2011, dated 2018)
pEC50: −log10 of the molar value. Where a name gives a salt, the structure may show the parent alone.

Target: T1, human 5-HT4(a) (Homo sapiens, UniProt Q13639)
T1 construct: host or cells: GeneBlAzer HTR4-CRE-bla CHO-K1 cells
Assay: Evaluation of agonistic activity in CHO-K1 cells expressing human 5-HT4(a) (GeneBlAzer HTR4-CRE-bla CHO-K1, beta-lactamase reporter)
Format: cell-based
Settings: CHO-K1 cells stably expressing human 5-HT4(a)
Outline: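 Agonism read as CRE-driven β-lactamase activity: emission ratio 465/535 nm (excitation 410 nm) after 2 h substrate loading. Preceded by 5 h compound treatment, 8 concentrations, 1% DMSO in the added solution, of overnight-plated reporter CHO-K1 cells; EC50 by non-linear regression.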

T1 sequence (Q13639 1-387 isoform Q13639-2): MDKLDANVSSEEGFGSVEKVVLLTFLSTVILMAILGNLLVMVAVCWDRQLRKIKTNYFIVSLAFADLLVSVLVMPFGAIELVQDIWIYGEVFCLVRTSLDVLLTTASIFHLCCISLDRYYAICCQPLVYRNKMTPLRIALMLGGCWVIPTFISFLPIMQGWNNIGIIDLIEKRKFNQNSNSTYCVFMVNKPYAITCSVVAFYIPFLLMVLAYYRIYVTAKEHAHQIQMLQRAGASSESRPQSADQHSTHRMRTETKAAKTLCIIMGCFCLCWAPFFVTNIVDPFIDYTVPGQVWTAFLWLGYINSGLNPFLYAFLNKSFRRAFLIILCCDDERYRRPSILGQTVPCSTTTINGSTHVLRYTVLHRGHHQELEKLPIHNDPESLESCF

SMILES | pEC50
CCCc1cc(N2CCC[C@H]2COC)nc(Nc2ccc(N)c(C#N)c2)n1 [Example 45, (S)-2-amino-5-{4-[2-(methoxymethyl)pyrrolidin-1-yl]-6-propylpyrimidin-2-ylamino}benzonitrile] | 10.44
CCCCCN[C@H]1CCN(c2cc(CCC)nc(Nc3cccc(C#N)c3)n2)C1 [Example 94, (S)-3-{4-[3-(pentylamino)pyrrolidin-1-yl]-6-propylpyrimidin-2-ylamino}benzonitrile] | 10.39
CCCc1cc(N2CC[C@H](NC(=O)Cc3ccccc3)C2)nc(Nc2cccc(C#N)c2)n1 [Example 66, (S)-N-{1-[2-(3-cyanophenylamino)-6-propylpyrimidin-4-yl]pyrrolidin-3-yl}-2-phenylacetamide] | 10.00
CCCc1cc(N2CCC(NC(C)=O)C2)nc(Nc2cccc(C#N)c2)n1 (stereo not shown) [Example 294, N-{1-[2-(3-cyanophenylamino)-6-propylpyrimidin-4-yl]pyrrolidin-3-yl}acetamide] | 10.12
CCCc1cc(N2CCC[C@H]2C)nc(Nc2ccc3c(C)cc(=O)oc3c2)n1 [Example 317] | 9.85
CCCCc1cc(N2CC[C@H](N(CC)CC)C2)nc(Nc2ccc(C)c(C#N)c2)n1 [Example 239] | 9.94
CCCc1cc(N2CC[C@H](NC(C)CCC(C)C)C2)nc(Nc2cccc(C#N)c2)n1 (stereo partly drawn) [Example 134, (S)-3-{4-[3-(5-methylhexan-2-ylamino)pyrrolidin-1-yl]-6-propylpyrimidin-2-ylamino}benzonitrile] | 9.67
CCCc1cc(N2CC[C@H](NCc3ccc(OC)cc3)C2)nc(Nc2cccc(C#N)c2)n1 [Example 97, (S)-3-{4-[3-(4-methoxybenzylamino)pyrrolidin-1-yl]-6-propylpyrimidin-2-ylamino}benzonitrile] | 10.34
CCCc1cc(N2CC[C@H](NC(C)=O)C2)nc(Nc2ccc(F)cc2)n1 [Example 17, (S)-N-{1-[2-(4-fluorophenylamino)-6-propylpyrimidin-4-yl]pyrrolidin-3-yl}acetamide] | 9.46
CCCc1cc(N2CCC[C@@H]2CO)nc(Nc2ccc3cc[nH]c3c2)n1 [Example 186] | 9.42
CCCC(=O)N[C@H]1CCN(c2cc(CCC)nc(Nc3cccc(C#N)c3)n2)C1 [Example 61, (S)-N-{1-[2-(3-cyanophenylamino)-6-propylpyrimidin-4-yl]pyrrolidin-3-yl}butyramide] | 9.82
CCCc1cc(N2CC[C@H](NC)C2)nc(Nc2ccc(N)c([N+](=O)[O-])c2)n1 [Example 175] | 9.64
CCCc1cc(N2CC[C@H](NC(=O)CC(F)(F)F)C2)nc(Nc2cccc(C#N)c2)n1 [Example 82, (S)-N-{1-[2-(3-cyanophenylamino)-6-propylpyrimidin-4-yl]pyrrolidin-3-yl}-3,3,3-trifluoropropanamide] | 10.32
CCCc1cc(N2CCC[C@H]2CO)nc(Nc2ccc(Cl)c([N+](=O)[O-])c2)n1 [Example 196, (S)-{1-[2-(4-chloro-3-nitrophenylamino)-6-propylpyrimidin-4-yl]pyrrolidin-2-yl}methanol] | 10.00
CCCc1cc(N2CC[C@H](NC(=O)CO)C2)nc(Nc2cccc(C#N)c2)n1 [Example 157, (S)-N-{1-[2-(3-cyanophenylamino)-6-propylpyrimidin-4-yl]pyrrolidin-3-yl}-2-hydroxyacetamide] | 10.36
CCCCC(C)N[C@H]1CCN(c2cc(CCC)nc(Nc3cccc(C#N)c3)n2)C1 (stereo partly drawn) [Example 133, (S)-3-{4-[3-(n-hexan-2-ylamino)pyrrolidin-1-yl]-6-propylpyrimidin-2-ylamino}benzonitrile] | 10.41
CCCc1cc(N2CCC[C@H]2C)nc(Nc2ccc(F)c(C#N)c2)n1 [Example 325] | 10.07
CCCc1cc(N2CCC[C@H]2CO)nc(Nc2ccc(C)c(N)c2)n1 [Example 399] | 9.89
CCCc1cc(N2CC[C@H](NC(=O)Cc3cccnc3)C2)nc(Nc2cccc(C#N)c2)n1 [Example 77, (S)-N-{1-[2-(3-cyanophenylamino)-6-propylpyrimidin-4-yl]pyrrolidin-3-yl}-2-(pyridin-3-yl)acetamide] | 9.82
CCCc1cc(N2CC[C@H](NCc3ccc(CC)cc3)C2)nc(Nc2cccc(C#N)c2)n1 [Example 92, (S)-3-{4-[3-(4-ethylbenzylamino)pyrrolidin-1-yl]-6-propylpyrimidin-2-ylamino}benzonitrile] | 10.24
CCCc1cc(N2CC[C@H](NCc3ccccc3F)C2)nc(Nc2cccc(C#N)c2)n1 [Example 106, (S)-3-{4-[3-(2-fluorobenzylamino)pyrrolidin-1-yl]-6-propylpyrimidin-2-ylamino}benzonitrile] | 9.89
CCCc1cc(N2CC[C@H](NCCCc3ccccc3)C2)nc(Nc2cccc(C#N)c2)n1 [Example 89, (S)-3-{4-[3-(3-phenylpropylamino)pyrrolidin-1-yl]-6-propylpyrimidin-2-ylamino}benzonitrile] | 10.10
CCCc1cc(N2CC[C@H](NCc3ccncc3)C2)nc(Nc2cccc(C#N)c2)n1 [Example 103, (S)-3-{4-propyl-6-[3-(pyridin-4-ylmethylamino)pyrrolidin-1-yl]pyrimidin-2-ylamino}benzonitrile] | 10.17
CCCc1cc(N2CCC(NC(C)=O)C2)nc(Nc2cnc3ccccc3c2)n1 (stereo not shown) [Example 310] | 9.43

The next compounds have a higher pEC50 than those just listed; values first:

pEC50 | SMILES
10.48 | CCCc1cc(N2CCC[C@H]2COC)nc(Nc2ccc(N)c(C(F)(F)F)c2)n1 [Example 42, (S)-N^1-{4-[2-(methoxymethyl)pyrrolidin-1-yl]-6-propylpyrimidin-2-yl}-3-(trifluoromethyl)benzene-1,4-diamine]
11.66 | CCCCc1cc(N2CC[C@H](NCC)C2)nc(Nc2cc(N)cc(C#N)c2)n1 [Example 465]
10.49 | CCCc1cc(N2CC[C@H](NC(C)=O)C2)nc(Nc2cccc(C#N)c2)n1 [Example 54, (S)-N-{1-[2-(3-cyanophenylamino)-6-propylpyrimidin-4-yl]pyrrolidin-3-yl}acetamide]
10.85 | CCCc1cc(N2CC[C@H](N)C2)nc(Nc2ccc(F)c([N+](=O)[O-])c2)n1 [Example 358, (S)-4-(3-aminopyrrolidin-1-yl)-N-(4-fluoro-3-nitrophenyl)-6-propylpyrimidin-2-amine dihydrochloride]
10.70 | CCCc1cc(N2CC[C@H](NCc3cc(C)c(C)o3)C2)nc(Nc2ccc(C)c(C#N)c2)n1 [Example 424]
10.72 | CCCc1cc(N2CC[C@H](N)C2)nc(Nc2cc(Cl)ccc2C)n1 [Example 348, (S)-4-(3-aminopyrrolidin-1-yl)-N-(5-chloro-2-methylphenyl)-6-propylpyrimidin-2-amine dihydrochloride]
11.57 | CCCc1cc(N2CC[C@H](N)C2)nc(Nc2ccc(N)c(C(F)(F)F)c2)n1 [Example 352]
11.41 | CCCCc1cc(N2CC[C@H](NCC)C2)nc(Nc2ccc(Cl)c([N+](=O)[O-])c2)n1 [Example 464]
10.82 | CCCc1cc(N2CC[C@H](NCC3CC3)C2)nc(Nc2cccc(SC)c2)n1 [Example 378]
11.00 | CCCCc1cc(N2CC[C@H](NC(C)=O)C2)nc(Nc2ccc(C)c([N+](=O)[O-])c2)n1 [Example 436]
11.36 | CCCCc1cc(N2CC[C@H](NC)C2)nc(Nc2ccc(F)c([N+](=O)[O-])c2)n1 [Example 449]
11.21 | CCCCc1cc(N2CC[C@H](NCC)C2)nc(Nc2ccc(F)c(C(F)(F)F)c2)n1 [Example 468]
11.05 | CCCc1cc(N2CC[C@H](NCC3CC3)C2)nc(Nc2cc(Cl)ccc2C)n1 [Example 380]
11.48 | CCCCc1cc(N2CC[C@H](NCC)C2)nc(Nc2ccc(Cl)c(N)c2)n1 [Example 471]
11.12 | CCCCc1cc(N2CC[C@H](NC(C)=O)C2)nc(Nc2cc(N)cc(C#N)c2)n1 [Example 439]
11.82 | CCCc1cc(N2CC[C@H](NC(C)=O)C2)nc(Nc2ccc(N)c([N+](=O)[O-])c2)n1 [Example 254, (S)—N-{1-[2-(4-amino-3-nitrophenylamino)-6-propylpyrimidin-4-yl]pyrrolidin-3-yl}acetamide]
10.66 | CCCc1cc(N2CC[C@H](NC(=O)CO)C2)nc(Nc2ccc(F)c(C#N)c2)n1 [Example 473]
10.96 | CCCc1cc(N2CC[C@H](NC(=O)CO)C2)nc(Nc2cc(N)cc(C(F)(F)F)c2)n1 [Example 475]
10.51 | CCCCCCN[C@H]1CCN(c2cc(CCC)nc(Nc3cccc(C#N)c3)n2)C1 [Example 84, (S)-3-{4-[3-(hexylamino)pyrrolidin-1-yl]-6-propylpyrimidin-2-ylamino}benzonitrile]
10.55 | CCCc1cc(N2CCC[C@H]2C)nc(Nc2ccc(C)c(C#N)c2)n1 [Example 326]
11.13 | CCCc1cc(N2CC[C@H](NC(C)=O)C2)nc(Nc2ccc(F)c(N)c2)n1 [Example 291]
10.72 | CCCc1cc(N2CCC(NC(C)=O)C2)nc(Nc2ccc(N)c(C#N)c2)n1 (stereo not shown) [Example 311]
11.10 | CCCc1cc(N2CC[C@H](NCc3ccc[nH]3)C2)nc(Nc2cccc(C#N)c2)n1 [Example 111, (S)-3-(4-{3-[(1H-pyrrol-2-yl)methylamino]pyrrolidin-1-yl}-6-propylpyrimidin-2-ylamino)benzonitrile]
10.55 | CCCc1cc(N2CC[C@H](NC(C)=O)C2)nc(Nc2cccc(C(F)(F)F)c2)n1 [Example 244]
11.37 | CCCc1cc(N2CC[C@H](NCC3CC3)C2)nc(Nc2ccc(F)c([N+](=O)[O-])c2)n1 [Example 373]
11.54 | CCCc1cc(N2CC[C@H](NCC)C2)nc(Nc2ccc(F)c(C(F)(F)F)c2)n1 [Example 491, (S)-4-[3-(ethylamino)pyrrolidin-1-yl]-N-[4-fluoro-3-(trifluoromethyl)phenyl]-6-propylpyrimidin-2-amine hydrochloride]
11.47 | CCCCc1cc(N2CC[C@H](NCC)C2)nc(Nc2cccc(C#N)c2)n1 [Example 459]
10.48 | CCCc1cc(N2CCC[C@H]2CO)nc(Nc2ccc(F)c(N)c2)n1 [Example 400]
